The text below walks through data of patent US8318899B2, “Lytic domain fusion constructs and methods of making and using same” (Board of Supervisors of Louisiana State University and …, priority 2008, dated 2012).

For the assay, the system named is NIH:OVCAR-3 xenograft. The assay is described as follows: OVCAR-3 ovarian cancer xenograft. The assay is classed as in vivo. The following applies: for tumor volume during treatment: Phor18-LHRH 0.02-2 mg/kg, CLIP71 2 mg/kg, cisplatinum 10 mg/kg. As for the experimental part:
The xenograft model of the OVCAR-3 human ovarian cancer cell line that present functional LHRH receptors was used in this study. OVCAR-3 represents a slow growing xenograft model and secretes the tumor marker (cancer antigen 125, or […]). It's secretion can be used as treatment response and is a measure of drug activity.
In brief, Nu/Nu female mice, inbred strain, age 5 weeks (Harlan-Sprague Dawley) were injected subcutaneously with a NIH:OVCAR-3 cells/Matrigel suspension (4.6×10^6 cells/mouse). Treatment was started on day 33 after tumor cell injection when the tumors were established and continued on days 41 and 47. The doses for the 3 weekly injections were 0.02, 0.2 and 2 mg/kg body weight, given as a single bolus intravenous injection via lateral tail vein administered once a week for three weeks on days 33, 41 and 47. Necropsies were conducted on day 52. Data are presented as mean SEM. Arrows show dosing.
A group of 9 tumor bearing mice was sacrificed on day 33 and served as baseline group. All mice were necropsied 51-52 days after tumor cell injection. Tumor volumes and bodyweights were recorded twice weekly during the study, as well as overall veterinarian examination of mice was conducted.
Primary tumors, liver, kidney, pancreas, heart, lung, and spleen were collected, fixed in formalin and prepared for histological evaluation. Tumor weights were measured at necropsy, part of the tumors were frozen at −80° C. for LH/CG and LHRH receptor assay determination.
As a biomarker for drug activity, CA125 was determined in serum, collected from each individual mouse at necropsy using a Enzyme Linked Immunoassay for quantitative determination of ovarian cancer antigen CA125 (Assay kit Genway, Biotech, Inc. San Diego, Calif., Catalog #40-052-115009, # BC-1013 according to the manufacturer).
LHRH receptor levels were assessed from formalin fixed tumors. Quantitative immunoperoxidase image analysis was conducted with the Ventana Image Analysis System (VIAS) adjunctive computer assisted image analysis system functionally connected to an interactive microscope (Axio Imager). The quantitative analysis was conducted with the program for quantification of Her2/neu receptor that included morphometric and colorimetric analysis. Receptor status results were reported as percentage of cells showing positive staining of the LHRH receptors under the following criteria: 0 non-immunoreactive, 1+: 1-25% positive, 2+: 26-50% positive, 3+: 51-75% positive cells.

For `N.N.[Cl][Pt][Cl]` [Cisplatinum, reference compound], the “tumor volume during treatment” value is on record as “no reduction in tumor volume”. For the setting “listed as cisplatinum”, the “tumor volume during treatment” value was “tumor growth was observed”. In addition, the “tumor weights at necropsy” value (mouse, in vivo) was “not effective in reducing tumor weights”.
